The structures appear in SMILES notation.

The source of these data is paper PMC7034089, “Synthesis of novel, DNA binding heterocyclic dehydroabietylamine derivatives as potential antiproliferative and apoptosis-inducing agents” (Drug Delivery, 2020).

For one series, the system named is Hela (cervix) cells. The series can be described thus: MTT antiproliferative assay, Hela cells. Format: cell-based. As to conditions: Homo sapiens, 36 h incubation, read-out: IC50 ± SE, Hela. How it is done: (§1) Compounds L^1−L^10 were evaluated against human cancer cell lines Hela, HepG2, MCF-7, A549, and the normal cell HUVEC with the antiproliferative activities in vitro by MTT assay, and results are summarized as IC50 values in Table 3.
(§2) Hela, HepG2, MCF-7, A549, and HUVEC cells were used in the antiproliferative activity assay. Cancer cells were seeded in 96-well plates with a density of 10^4 cells per well, after 12 hours of incubation at 5% CO2 and 37 °C, the culture media was removed and cells were incubated with L^1−L^10 dissolved in DMEM at different concentrations (each concentration repeated 3 times) for 36 h at 5% CO2 and 37 °C. Subsequently, removed the culture media and the new culture medium containing MTT (1 mg/mL) was added, followed by incubating for 4 h to allow the formation of formazan dye (Xia et al., [2015]; Zhao et al., [2018]). After removing the medium, 200 μL DMSO was added to each well to dissolve the formazan crystals. Absorbance was measured at 595 nm in a microplate photometer. Cell viability values were determined (at least three times) according to the following formulae: cell viability (%) = the absorbance of experimental group/the absorbance of blank control group ×100%.

The subject of the next series is HepG2 (liver) cells. The series can be described thus: MTT antiproliferative assay, HepG2 cells. It is filed as cell-based. The conditions noted are these: Homo sapiens, 36 h incubation, read-out: IC50 ± SE, HepG2. On the procedure: as §2
The subject of another series is MCF-7 (breast) cells. In words: MTT antiproliferative assay, MCF-7 cells. It is filed as cell-based. As to conditions: Homo sapiens, MCF7, 36 h incubation, read-out: IC50 ± SE, MCF-7. How it is done:
as §1, §2

A further series relates to A549 (lung) cells. In words: MTT antiproliferative assay, A549 cells. The conditions noted are these: Homo sapiens, 36 h incubation, read-out: IC50 ± SE, A549. Format: cell-based. How it is done: as §1, §2
Series [1] has as its system HUVEC (umbilical vein) cells. The series can be described thus: MTT cytotoxicity assay, normal HUVEC cells. Format: cell-based. As to conditions: Homo sapiens, 36 h, 36 h incubation, read-out: IC50 ± SE, HUVEC (toxicity, normal cell). On the procedure:
as §1, §2

The next series is described as follows: pKb. It is filed as physicochemical.

In the case of `COc1cnc(C(=O)NCC2(C)CCCC3(C)c4ccc(C(C)C)cc4CCC23)cn1` (stereo not shown) [L^8, 5-methoxyl-2-pyrazine-acyl-dehydroabietylamine], the IC50 with Hela (cervix) cells is 20.2 ± 0.89 µM; in the series with HepG2 (liver) cells, 17.06 ± 0.07 µM; in the series with MCF-7 (breast) cells, 8.81 ± 0.54 µM; in the series with A549 (lung) cells it was 36 ± 2.18 µM; in series [1], 95.1 ± 0.97 µM.

Take `CC(C)c1ccc2c(c1)CCC1C(C)(CNC(=O)c3cnccn3)CCCC21C` (stereo not shown) [L^7, 2-pyrazine-acyl-dehydroabietylamine]: the melting point is 159.8 to 162.3 °C. Also, the IC50 in the series on Hela (cervix) cells turned out to be 43.5 ± 1.34 µM. Also, in the series on HepG2 (liver) cells, the IC50 was 24 ± 1.33 µM. Moreover, in the series on MCF-7 (breast) cells, the IC50 was 11.8 ± 0.54 µM. In the series with A549 (lung) cells, the IC50 is 83.6 ± 15.7 µM. Besides, the IC50 in series [1] was determined as 66.8 ± 2.6 µM.

Regarding `CC(C)c1ccc2c(c1)CCC1C(C)(CN=Cc3ccc(Br)s3)CCCC21C` (stereo not shown) [L^3, 5-bromine-2-thiophene-dehydroabietylamine-Schiff-base], the IC50 in the series on Hela (cervix) cells turned out to be 54.38 ± 0.38 µM; in the series on HepG2 (liver) cells, 1.63 ± 0.39 µM; in the series on MCF-7 (breast) cells, 2.65 ± 0.07 µM; with A549 (lung) cells, 95.5 ± 2.48 µM; in series [1], 16.6 ± 1.08 µM.

As to `Cc1ccsc1C=NCC1(C)CCCC2(C)c3ccc(C(C)C)cc3CCC12` (stereo not shown) [L^2, 3-methyl-2-thiophene-dehydroabietylamine-Schiff-base], the melting point lay in the range of 38.2 to 39.1 °C. For the same molecule, the IC50 in the series with Hela (cervix) cells came out at 59.52 ± 0.27 µM. In the series on HepG2 (liver) cells, the IC50 is 28.78 ± 0.19 µM. The IC50 with MCF-7 (breast) cells was 14.5 ± 2.48 µM. Also, the IC50 in the series on A549 (lung) cells is more than 100 µM. In series [1], the IC50 turned out to be 34 ± 1.57 µM.

Consider `CC(C)c1ccc2c(c1)CCC1C(C)(CN)CCCC21C` (stereo not shown) [L^0, dehydroabietylamine], for which the IC50 in the series on Hela (cervix) cells stood at 2.02 ± 0.02 µM; in the series on HepG2 (liver) cells, 2.56 ± 0.04 µM; in the series with MCF-7 (breast) cells, 19.4 ± 0.39 µM; with A549 (lung) cells it was 5.02 ± 0.19 µM; in series [1], 1.27 ± 0.03 µM.

As to `CC(C)c1ccc2c(c1)CCC1C(C)(CNC(=O)c3cccs3)CCCC21C` (stereo not shown) [L^4, 2–thiophene-acyl-dehydroabietylamine], the concentration for half-maximal inhibition (IC50) was 14.8 ± 0.22 µM in the series with Hela (cervix) cells; 46 ± 1.13 µM in the series on HepG2 (liver) cells; 8.21 ± 0.65 µM with MCF-7 (breast) cells; more than 100 µM with A549 (lung) cells; more than 100 µM in series [1].

Turning to `CC(C)c1ccc2c(c1)CCC1C(C)(CN=Cc3cccs3)CCCC21C` (stereo not shown) [L^1, 2-thiophene-dehydroabietylamine-Schiff-base], the concentration for half-maximal inhibition (IC50) was found to be 9.02 ± 0.25 µM in the series with Hela (cervix) cells; 0.66 ± 0.02 µM with HepG2 (liver) cells; 5.33 ± 0.16 µM with MCF-7 (breast) cells; 2.11 ± 0.06 µM in the series with A549 (lung) cells; 5.98 µM in series [1].

As to `Cc1cnc(C(=O)NCC2(C)CCCC3(C)c4ccc(C(C)C)cc4CCC23)cn1` (stereo not shown) [L^9, 5–methyl-2-pyrazine-acyl-dehydroabietylamine], the melting point is 130.7 to 133.4 °C. The IC50 in the series with Hela (cervix) cells turned out to be 52.5 ± 0.54 µM. The IC50 with HepG2 (liver) cells amounted to 44.9 ± 0.75 µM. The IC50 in the series with MCF-7 (breast) cells is 6.66 ± 0.24 µM. Besides, in the series on A549 (lung) cells, the IC50 was more than 100 µM. In series [1], the IC50 was 18.9 ± 1.72 µM.

On to `CC(C)c1ccc2c(c1)CCC1C(C)(CNC(=O)c3ccc(Br)s3)CCCC21C` (stereo not shown) [L^6, 5-bromine-2-thiophene-acyl-dehydroabietylamine], for which the melting point was in the range of 170.7 to 173.2 °C. Moreover, the IC50 in the series on Hela (cervix) cells was more than 100 µM. Also, the half-inhibitory concentration (IC50) in the series with HepG2 (liver) cells amounted to 51.4 ± 2 µM. In addition, the IC50 in the series with MCF-7 (breast) cells turned out to be 55.6 ± 2.56 µM. The concentration for half-maximal inhibition (IC50) in the series on A549 (lung) cells was determined as 94.4 ± 2.56 µM. Besides, the IC50 in series [1] is 75.5 ± 12.4 µM.

`Cc1ccc(C(=O)NCC2(C)CCCC3(C)c4ccc(C(C)C)cc4CCC23)s1` (stereo not shown) [L^5, 5-methyl-2-thiophene-acyl-dehydroabietylamine]: the melting point lay in the range of 169.4 to 171.7 °C. For the same molecule, the IC50 in the series with Hela (cervix) cells is more than 100 µM. In the series on HepG2 (liver) cells, the IC50 was determined as 53.1 ± 1.95 µM. For the same molecule, the IC50 in the series with MCF-7 (breast) cells turned out to be 8.27 ± 0.21 µM. Further, the IC50 in the series on A549 (lung) cells is more than 100 µM. For the same molecule, in series [1], the IC50 was more than 100 µM.

On to `CC(C)c1ccc2c(c1)CCC1C(C)(CNC(=O)c3cnc(Cl)cn3)CCCC21C` (stereo not shown) [L^10, 5-chloro-2-pyrazine-acyl-dehydroabietylamine], for which the melting point was in the range of 152.4 to 154.5 °C. The IC50 in the series on Hela (cervix) cells was more than 100 µM. For the same molecule, the IC50 with HepG2 (liver) cells came out at 56.1 ± 6.11 µM. For the same molecule, the IC50 in the series with MCF-7 (breast) cells is 88.8 ± 3.46 µM. For the same molecule, the IC50 in the series on A549 (lung) cells worked out at 39.6 ± 1.74 µM. In addition, the IC50 in series [1] is 29.4 ± 2.35 µM.

With `COc1cccc2c1C(=O)c1c(O)c3c(c(O)c1C2=O)C[C@@](O)(C(=O)CO)C[C@@H]3O[C@H]1C[C@H](N)[C@H](O)[C@H](C)O1` [DOX, Doxorubicin, reference compound], the IC50 in the series with Hela (cervix) cells was found to be 3.55 ± 0.17 µM; with HepG2 (liver) cells it was 1.2 ± 0.04 µM; in the series with MCF-7 (breast) cells, 14 ± 1.03 µM; with A549 (lung) cells, 3.35 ± 0.69 µM; in series [1], 4.4 ± 0.55 µM. The molecule further showed a pKb in “pKb” of 5.80.
